Patent publication US11440913B2, “Aminoimidazopyridazines as kinase inhibitors” (BRISTOL-MYERS SQUIBB COMPANY, priority 2017, dated 2022)
Where a name gives a salt, the structure may show the parent alone. Read-outs that look alike come from different tables or passages of the source.

Assays:
[1] = biological target: His-GST-TVMV-hRIPK1(1-324) (Homo sapiens (Human), UniProt Q13546); test: RIPK1 HTRF Binding Assay; details: HTRF binding, 1 h at rt; read-out: RIPK1 (IC50)
Outline: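 HTRF probe-displacement binding: 1 nM His-GST-TVMV-hRIPK1(1-324) (baculovirus construct), 90.6 nM probe, 0.2 nM anti-GST-Tb in 20 mM HEPES, 10 mM MgCl2, 0.015% Brij-35, 4 mM DTT, 0.05 mg/mL BSA. Incubated 1 h at rt; FRET 520/495 nm ratio, inhibition relative to DMSO-only wells.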

[2] = test system: MLKL phosphorylation in HT29-L23 human colorectal adenocarcinoma cells; test: MLKL Phosphorylation High-Content Assay; type: cell-based; details: 6 h, necroptosis induced with TNFα, SMAC mimetic and Z-VAD, read-out: pMLKL (IC50)
Outline: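 HT29-L23 cells pretreated 30 min at 37 °C with compound (6.25 to 0.106 μM final), then necroptosis induced with TNFα 35 ng/mL, SMAC mimetic 700 nM and Z-VAD 140 nM for 6 h. Fixed cells immunostained for MLKL pS358 and imaged; IC50 and Ymax from 4-parameter logistic fit.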

Chain of His-GST-TVMV-hRIPK1(1-324) (Q13546 1-324): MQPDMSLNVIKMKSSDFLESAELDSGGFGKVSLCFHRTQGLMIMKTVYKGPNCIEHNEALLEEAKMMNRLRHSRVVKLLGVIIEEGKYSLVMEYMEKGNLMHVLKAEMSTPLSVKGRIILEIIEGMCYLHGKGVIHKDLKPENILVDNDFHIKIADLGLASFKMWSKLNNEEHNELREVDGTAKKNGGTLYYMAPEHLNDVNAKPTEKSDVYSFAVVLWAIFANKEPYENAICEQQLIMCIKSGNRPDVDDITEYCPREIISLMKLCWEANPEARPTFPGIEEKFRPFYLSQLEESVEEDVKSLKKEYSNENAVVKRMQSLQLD

Structure (SMILES): CC(=O)Nc1cn2nc(-c3cnc(C)c(C(=O)NCc4cc(F)cc(F)c4OCC4CC4)c3)ccc2n1 [Example 214, N-{[2-(cyclopropylmethoxy)-3,5-difluorophenyl]methyl}-5-{2-acetamidoimidazo[1,2-b]pyridazin-6-yl}-2-methylpyridine-3-carboxamide]
- IC50 [1]: 1 nM
- IC50 ([2]; Homo sapiens): 16 nM

Structure (SMILES): Cc1ncc(-c2ccc3nc(NC(=O)CN4CCN(C)CC4)cn3n2)cc1C(=O)N[C@H](C)c1cc(OC(F)(F)F)ccc1F [Example 336, N-[(1R)-1-[2-fluoro-5-(trifluoromethoxy)-phenyl]ethyl]-2-methyl-5-{2-[2-(4-methylpiperazin-1-yl)acetamido]imidazo[1,2-b]pyridazin-6-yl}pyridine-3-carboxamide]
- IC50 [1]: 19 nM
- IC50 ([2]; Homo sapiens): 8 nM

Structure (SMILES): COc1ncc(-c2ccc3nc(NC(C)=O)cn3n2)cc1C(=O)NCc1ccccc1OCC(F)(F)F [Example 108, 5-{2-acetamidoimidazo[1,2-b]pyridazin-6-yl}-2-methoxy-N-{[2-(2,2,2-trifluoroethoxy)phenyl]meth-yl}pyridine-3-carboxamide]
- IC50 [1]: 4 nM
- IC50 ([2]; Homo sapiens): 28 nM

Structure (SMILES): CC(=O)Nc1cn2nc(-c3cncc(C(=O)NCc4ccccc4OC4CCCC4)c3)ccc2n1 [Example 21, N-{[2-(cyclopentyloxy)phenyl]methyl}-5-{2-acetamidoimidazo[1,2-b]pyridazin-6-yl}pyridine-3-carboxamide]
- IC50 [1]: 10 nM
- IC50 ([2]; Homo sapiens): 29 nM

Structure (SMILES): CC(=O)Nc1cn2nc(-c3ccc(Cl)c(C(=O)NCc4cc(-c5cnn(C)c5)ccc4F)c3F)ccc2n1 [Example 389, 6-chloro-3-{2-acetamidoimidazo [1,2-b]pyridazin-6-yl}-2-fluoro-N-{[2-fluoro-5-(1-methyl-1H-pyrazol-4-yl)phenyl]methyl} benzamide]
- IC50 [1]: 4 nM
- IC50 ([2]; Homo sapiens): 8 nM

Structure (SMILES): COc1ncc(-c2ccc3nc(NC(C)=O)cn3n2)cc1C(=O)NCc1ccccc1OC1CCCC1 [Example 159, N-{[2-(cyclopentyloxy)phenyl]methyl}-5-{2-acetamidoimidazo[1,2-b]pyridazin-6-yl}-2-methoxypyridine-3-carboxamide]
- IC50 [1]: 3 nM
- IC50 ([2]; Homo sapiens): 6 nM

Structure (SMILES): [2H]C([2H])([2H])Oc1nc(C)c(-c2ccc3nc(NC(C)=O)cn3n2)cc1C(=O)NCc1cc(F)cc(F)c1OCC1CC1 [Example 177, N-{[2-(cyclopropylmethoxy)-3,5-difluorophenyl]methyl}-5-{2-acetamidoimidazo[1,2-b]pyridazin-6-yl}-2-(deutero)methoxy-6-methylpyridine-3-carboxamide]
- IC50 [1]: 2 nM
- IC50 ([2]; Homo sapiens): 3 nM

Structure (SMILES): CC(=O)Nc1cn2nc(-c3cc(C(=O)NCc4c(F)cccc4OCC(F)(F)F)c(C)nc3C)ccc2n1 [Example 325, 5-{2-acetamidoimidazo[1,2-b]pyridazin-6-yl}-N-{[2-fluoro-6-(2,2,2-trifluoroethoxy)phenyl]methyl}-2,6-dimethylpyridine-3-carboxamide]
- IC50 [1]: 9 nM
- IC50 ([2]; Homo sapiens): 17 nM

Structure (SMILES): CC(=O)Nc1cn2nc(-c3cc(C(=O)NCc4cc(OCC5CC5)ccc4F)c(C)nc3C)ccc2n1 [Example 326, N-{[5-(cyclopropylmethoxy)-2-fluorophenyl]methyl}-5-{2-acetamidoimidazo[1,2-b]pyridazin-6-yl}-2,6-dimethylpyridine-3-carboxamide]
- IC50 [1]: 6 nM
- IC50 ([2]; Homo sapiens): 10 nM

Structure (SMILES): [2H]C([2H])([2H])[C@@H](NC(=O)c1c(C)ccc(-c2ccc3nc(NC(C)=O)cn3n2)c1F)c1cc(OC(F)(F)F)ccc1F [Example 412, 3-{2-acetamidoimidazo [1,2-b]pyridazin-6-yl}-2-fluoro-N-[(1R)-1-[2-fluoro-5-(trifluoromethoxy)phenyl](2,2,2-Â^2Hâ,f)ethyl]-6-methylbenzamide]
- IC50 [1]: 4 nM
- IC50 ([2]; Homo sapiens): 1 nM

Structure (SMILES): [2H]C([2H])([2H])Oc1ncc(-c2ccc3nc(NC(C)=O)cn3n2)cc1C(=O)NCc1cc(F)cc(F)c1OC1CCCOC1 (centres unmarked) [Example 43, N-{[3,5-difluoro-2-(oxan-3-yloxy)phenyl]methyl}-5-{2-acetamidoimidazo[1,2-b]pyridazin-6-yl}-2-(D3)methoxypyridine-3-carboxamide]
- IC50 [1]: 10 nM
- IC50 ([2]; Homo sapiens): 28 nM

Structure (SMILES): CC(=O)Nc1cn2nc(-c3cncc(C(=O)NCc4ccccc4OCC4CC4)c3)ccc2n1 [Example 239, N-{[2-(cyclopropylmethoxy)phenyl]methyl}-5-{2-acetamidoimidazo [1,2-b]pyridazin-6-yl}pyridine-3-carboxamide]
- IC50 [1]: 13 nM
- IC50 ([2]; Homo sapiens): 158 nM

Structure (SMILES): CC(=O)Nc1cn2nc(-c3cc(C(=O)NCc4cccc(OCC(F)(F)F)c4)c(C)nc3C)ccc2n1 [Example 73, 5-{2-acetamidoimidazo[1,2-b]pyridazin-6-yl}-2,6-dimethyl-N-{[3-(2,2,2-trifluoroethoxy)phenyl]methyl}pyridine-3-carboxamide]
- IC50 [1]: 57 nM
- IC50 ([2]; Homo sapiens): 82 nM

Structure (SMILES): CC(=O)Nc1cn2nc(-c3cncc(C(=O)NCc4cc(F)ccc4OC4CCCC4)c3)ccc2n1 [Example 242, N-{[2-(cyclopentyloxy)-5-fluorophenyl]methyl}-5-{2-acetamidoimidazo[1,2-b]pyridazin-6-yl}pyridine-3-carboxamide]
- IC50 [1]: 4 nM
- IC50 ([2]; Homo sapiens): 11 nM

Structure (SMILES): COc1nc(C)c(-c2ccc3nc(NC(C)=O)cn3n2)cc1C(=O)NCc1cc(F)cc(F)c1OCC1CC1 [Example 300, N-{[2-(cyclopropylmethoxy)-3,5-difluorophenyl]methyl}-5-{2-acetamidoimidazo[1,2-b]pyridazin-6-yl}-2-methoxy-6-methylpyridine-3-carboxamide]
- IC50 [1]: 4 nM
- IC50 ([2]; Homo sapiens): 76 nM

Structure (SMILES): CC(=O)Nc1cn2nc(-c3cnc(C)c(C(=O)N4CCCC(C(O)c5ccc(F)cc5)C4)c3)ccc2n1 (single isomer, unassigned) [Example 355, N-[6-(5-{3-[(4-fluorophenyl)(hydroxy)methyl]piperidine-1-carbonyl}-6-methylpyridin-3-yl)imidazo[1,2-b]pyridazin-2-yl] acetamide]
- IC50 [1]: 223 nM
- IC50 [2]: 553 nM

Structure (SMILES): COc1ncc(-c2ccc3nc(NC(C)=O)cn3n2)cc1C(=O)NCc1cc(F)cc(F)c1OCC1CCC1 [Example 97, N-{[2-(cyclobutylmethoxy)-3,5-difluorophenyl]methyl}-5-{2-acetamidoimidazo[1,2-b]pyridazin-6-yl}-2-methoxypyridine-3-carboxamide]
- IC50 [1]: 2 nM
- IC50 ([2]; Homo sapiens): 2 nM

Structure (SMILES): CC(=O)Nc1cn2nc(-c3cc(F)c(F)c(C(=O)N[C@H](C)c4cc(OC(F)(F)F)ccc4F)c3)ccc2n1 [Example 367, 5-{2-acetamidoimidazo [1,2-b]pyridazin-6-yl}-2,3-difluoro-N-[(1R)-1-[2-fluoro-5-(trifluoromethoxy)phenyl]ethyl] benzamide]
- IC50 [1]: 56 nM
- IC50 ([2]; Homo sapiens): 194 nM

Structure (SMILES): [2H]C([2H])([2H])Oc1ncc(-c2ccc3nc(NC(C)=O)cn3n2)cc1C(=O)NCc1cc(F)cc(F)c1O[C@@H]1CCOC1 [Example 44, N-({3,5-difluoro-2-[(3R)-oxolan-3-yloxy]phenyl}methyl)-5-{2-acetamidoimidazo[1,2-b]pyridazin-6-yl}-2-(D3)methoxypyridine-3-carboxamide]
- IC50 [1]: 17 nM
- IC50 ([2]; Homo sapiens): 71 nM

Structure (SMILES): Cc1ncc(-c2ccc3nc(NC(=O)CO)cn3n2)cc1C(=O)N[C@H](C)c1cc(C(F)(F)F)ccc1F [Example 182, N-[(1R)-1-[2-fluoro-5-(trifluoromethyl)phenyl]ethyl]-5-[2-(2-hydroxyacetamido)imidazo [1,2-b]pyridazin-6-yl]-2-methylpyridine-3-carboxamide, TFA]
- IC50 [1]: 272 nM
- IC50 ([2]; Homo sapiens): 455 nM

Structure (SMILES): CCC(=O)Nc1cn2nc(-c3cnc(OC)c(C(=O)NCc4cc(F)cc(F)c4OCC4CC4)c3)ccc2n1 [Example 4, N-{[2-(cyclopropylmethoxy)-3,5-difluorophenyl]methyl}-2-methoxy-5-{2-propanamidoimidazo[1,2-b]pyridazin-6-yl}pyridine-3-carboxamide]
- IC50 [1]: 2 nM
- IC50 ([2]; Homo sapiens): 10 nM

Structure (SMILES): CC(=O)Nc1cn2nc(-c3cnc(Cl)c(C(=O)NC(C)c4cc(C(F)(F)F)ccc4F)c3)ccc2n1 (centres unmarked) [Example 270, 2-chloro-5-{2-acetamidoimidazo[1,2-b]pyridazin-6-yl}-N-{1-[2-fluoro-5-(trifluoromethyl)phenyl]ethyl}pyridine-3-carboxamide]
- IC50 [1]: 23 nM
- IC50 [2]: 204 nM

Structure (SMILES): CCC(=O)Nc1cn2nc(-c3cnc(OC)c(C(=O)NCC[C@H](O)c4ccc(Cl)cc4)c3)ccc2n1 [Example 246, N-[(3S)-3-(4-chlorophenyl)-3-hydroxypropyl]-2-methoxy-5-{2-propanamidoimidazo[1,2-b]pyridazin-6-yl}pyridine-3-carboxamide]
- IC50 [1]: 92 nM
- IC50 ([2]; Homo sapiens): 105 nM

Structure (SMILES): CC(=O)Nc1cn2nc(-c3cc(F)c(C)c(C(=O)N[C@@H](C)c4cc(OC(F)(F)F)ccc4F)c3)ccc2n1 [Example 360, 5-{2-acetamidoimidazo [1,2-b]pyridazin-6-yl}-3-fluoro-N-[(1S)-1-[2-fluoro-5-(trifluoromethoxy)phenyl]ethyl]-2-methylbenzamide]
- IC50 [1]: 6 nM
- IC50 ([2]; Homo sapiens): 9 nM

Structure (SMILES): CC(=O)Nc1cn2nc(-c3c(F)c(F)cc(C(=O)NCc4cc(OC(F)(F)F)ccc4F)c3F)ccc2n1 [Example 368, 3-{2-acetamidoimidazo [1,2-b]pyridazin-6-yl}-2,4,5-trifluoro-N-{[2-fluoro-5-(trifluoromethoxy)phenyl]methyl} benzamide]
- IC50 [1]: 25 nM
- IC50 ([2]; Homo sapiens): 31 nM
